ChEMBL document CHEMBL1201862, “PubChem BioAssay data set” (2004)
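Step 1: Grow cells in 96-well plates. Step 2: Expose to compound for 48 hours at 5 concentrations. Step 3: Interpolate endpoints linearly; if unreached, use highest concentration. The concentration for 50% growth inhibition is given as GI50.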 Active and inactive are the calls of the source. Rule as the data show it: active = GI50 up to about 1.1 µM and inactive = higher.

Experiments:
Experiment in all cases: DTP human tumour cell line panel, 48 h
A498 = system: A498
A549 = system: A549
EKVX = system: EKVX
HCC 2998 = system: HCC 2998
HOP-92 = system: HOP-92
HT-29 = system: HT-29
K562 = system: K562
M14 = system: M14
Malme-3M = system: Malme-3M
NCI-H460 = system: NCI-H460
OVCAR-4 = system: OVCAR-4
SK-MEL-2 = system: SK-MEL-2
SK-OV-3 = system: SK-OV-3
SNB-75 = system: SNB-75
SW-620 = system: SW-620
UO-31 = system: UO-31
SR = system: SR

Measured: GI50

C[C@]12CC[C@H](OC(=O)Nc3ccccc3)CC1=CC[C@@H]1C2CC[C@]2(C)/C(=N/OC(=O)Nc3ccccc3)CCC12 (stereo not given in full)
inactive: A498 > 100 µM | A549 7.85 µM | EKVX 30.1 µM | HCC 2998 > 100 µM | HOP-92 20.1 µM | HT-29 2.88 µM | K562 2.21 µM | M14 12.5 µM | Malme-3M 1.72 µM | NCI-H460 25.6 µM | OVCAR-4 5.66 µM | SK-MEL-2 > 100 µM | SK-OV-3 > 100 µM | SNB-75 5.5 µM | SW-620 > 100 µM | UO-31 1.92 µM

Cc1nc(-n2nc(-c3ccccc3)cc2-c2ccccc2)sc1C(/C=C/c1ccc([N+](=O)[O-])cc1)=N/NC(=O)c1ccncc1
inactive: A498 49.3 µM | A549 30.3 µM | EKVX 36.8 µM | HCC 2998 5.82 µM | HOP-92 11.5 µM | HT-29 14.4 µM | K562 13.9 µM | M14 20.2 µM | Malme-3M 21.9 µM | NCI-H460 40 µM | SK-MEL-2 17.7 µM | SK-OV-3 44.8 µM | SNB-75 22.9 µM | SW-620 26.7 µM | UO-31 11.7 µM

COc1ccc2c(c1)[n+]([O-])c(-c1nc3ccccc3s1)c(N)[n+]2[O-]
inactive: A498 45.8 µM | A549 > 100 µM | EKVX > 100 µM | HOP-92 > 100 µM | HT-29 > 100 µM | K562 64.4 µM | M14 > 100 µM | Malme-3M > 100 µM | NCI-H460 47.3 µM | OVCAR-4 > 100 µM | SK-MEL-2 > 100 µM | SK-OV-3 > 100 µM | SNB-75 39.1 µM | SR 59.6 µM | SW-620 > 100 µM | UO-31 34 µM

C=C=C(C(=O)OC)[S+]([O-])c1ccccc1[N+](=O)[O-] (stereo not given)
inactive: A498 > 100 µM | A549 > 100 µM | EKVX > 100 µM | HCC 2998 > 100 µM | HT-29 > 100 µM | K562 59.2 µM | M14 > 100 µM | Malme-3M > 100 µM | NCI-H460 > 100 µM | OVCAR-4 > 100 µM | SK-MEL-2 > 100 µM | SK-OV-3 > 100 µM | SNB-75 > 100 µM | SW-620 99.5 µM | UO-31 > 100 µM

C=CCNC(=O)N(CCCC(NC(C)=O)C(=O)NCc1ccccc1)Cc1ccccc1 (stereo not given)
inactive: A498 > 100 µM | A549 > 100 µM | EKVX > 100 µM | HOP-92 83 µM | HT-29 > 100 µM | K562 > 100 µM | M14 > 100 µM | Malme-3M > 100 µM | NCI-H460 > 100 µM | OVCAR-4 > 100 µM | SK-MEL-2 > 100 µM | SK-OV-3 > 100 µM | SNB-75 > 100 µM | SW-620 > 100 µM | UO-31 > 100 µM

CC(C)C1N2CCCCC2[C@@H]2c3[nH]c4ccccc4c3CCN12 (stereo not given in full)
inactive: A498 > 100 µM | A549 > 100 µM | EKVX > 100 µM | HCC 2998 > 100 µM | HOP-92 > 100 µM | HT-29 > 100 µM | K562 > 100 µM | M14 > 100 µM | NCI-H460 > 100 µM | OVCAR-4 > 100 µM | SK-MEL-2 > 100 µM | SK-OV-3 > 100 µM | SNB-75 > 100 µM | SW-620 > 100 µM | UO-31 > 100 µM

CC(=O)NC(CCCCN(Cc1ccccc1)C(=O)N(C)N=O)C(=O)NCc1ccccc1 (stereo not given)
inactive: A498 > 100 µM | A549 95.9 µM | EKVX 90.4 µM | HCC 2998 > 100 µM | HOP-92 61.8 µM | HT-29 83.9 µM | K562 61 µM | M14 > 100 µM | Malme-3M 82 µM | NCI-H460 88.7 µM | OVCAR-4 62.2 µM | SK-MEL-2 > 100 µM | SK-OV-3 > 100 µM | SNB-75 31.9 µM | SW-620 > 100 µM | UO-31 47.3 µM

CCOc1ccccc1NC(=O)/C=C1\NC(=O)CS1
inactive: A498 > 100 µM | A549 > 100 µM | EKVX > 100 µM | HCC 2998 > 100 µM | HOP-92 > 100 µM | HT-29 > 100 µM | K562 > 100 µM | M14 > 100 µM | Malme-3M 50.5 µM | NCI-H460 > 100 µM | OVCAR-4 > 100 µM | SK-MEL-2 > 100 µM | SK-OV-3 > 100 µM | SNB-75 26.9 µM | SW-620 > 100 µM | UO-31 > 100 µM

COc1cc(Cl)c2c3c(c(C(C)=O)oc13)CCC2
inactive: A498 > 100 µM | A549 > 100 µM | EKVX > 100 µM | HCC 2998 > 100 µM | HOP-92 92.9 µM | HT-29 > 100 µM | K562 > 100 µM | M14 > 100 µM | NCI-H460 > 100 µM | OVCAR-4 > 100 µM | SK-OV-3 > 100 µM | SNB-75 > 100 µM | SW-620 > 100 µM

C[C@]12Cc3cn[nH]c3C(=O)C1CC[C@@H]1C2CC[C@@]2(C)C1CC[C@]2(C)O (stereo not given in full)
inactive: A498 > 100 µM | A549 > 100 µM | EKVX > 100 µM | HCC 2998 > 100 µM | HOP-92 > 100 µM | HT-29 > 100 µM | K562 > 100 µM | M14 > 100 µM | Malme-3M > 100 µM | NCI-H460 > 100 µM | OVCAR-4 > 100 µM | SK-MEL-2 > 100 µM | SK-OV-3 > 100 µM | SNB-75 39.7 µM | SW-620 > 100 µM | UO-31 > 100 µM

O=c1[nH]c(Br)nc2c(N3CCCCC3)c[nH]c12
inactive: A498 > 100 µM | A549 > 100 µM | EKVX > 100 µM | HOP-92 > 100 µM | HT-29 > 100 µM | K562 > 100 µM | M14 > 100 µM | Malme-3M > 100 µM | NCI-H460 > 100 µM | OVCAR-4 > 100 µM | SK-MEL-2 > 100 µM | SK-OV-3 > 100 µM | SNB-75 > 100 µM | SW-620 > 100 µM | UO-31 > 100 µM

O=C(Cc1nc2ccccc2o1)C(=O)Nc1cccc(C(F)(F)F)c1
inactive: A498 > 100 µM | A549 > 100 µM | EKVX > 100 µM | HCC 2998 > 100 µM | HOP-92 > 100 µM | HT-29 > 100 µM | K562 > 100 µM | M14 > 100 µM | Malme-3M > 100 µM | NCI-H460 > 100 µM | OVCAR-4 > 100 µM | SK-MEL-2 > 100 µM | SK-OV-3 > 100 µM | SNB-75 > 100 µM | SW-620 > 100 µM | UO-31 > 100 µM

Cc1ccccc1N(CC(=O)O)S(=O)(=O)c1ccccc1
inactive: A498 > 100 µM | A549 > 100 µM | EKVX > 100 µM | HCC 2998 > 100 µM | HOP-92 > 100 µM | HT-29 > 100 µM | K562 > 100 µM | M14 > 100 µM | Malme-3M > 100 µM | NCI-H460 > 100 µM | OVCAR-4 > 100 µM | SK-MEL-2 > 100 µM | SK-OV-3 > 100 µM | SNB-75 > 100 µM | SW-620 > 100 µM | UO-31 > 100 µM
